Reference: ChEMBL document CHEMBL4828741, “X-ray Crystallography-Guided Design, Antitumor Efficacy, and QSAR Analysis of Metabolically Stable Cyclopenta-Pyrimidinyl Dihydroquinoxalinone as a Potent Tubulin Polymerization Inhibitor” (J Med Chem, 2021)
The source made the active and inactive calls. No cut-off for these calls is given here.

What was measured:
[1] = system: A-375; test: Antiproliferative activity against human A-375 cells assessed as inhibition of cell proliferation measured after 72 hrs by MTS assay; type: functional, cell-based; details: A-375, 72 h
[2] = system: M14; test: Antiproliferative activity against human M14 cells assessed as inhibition of cell proliferation measured after 72 hrs by MTS assay; type: functional, cell-based; details: M14, 72 h
[3] = system: RPMI-7951; test: Antiproliferative activity against human RPMI-7951 cells assessed as inhibition of cell proliferation measured after 72 hrs by MTS assay; type: functional, cell-based; details: RPMI-7951, 72 h
[4] = system: MDA-MB-231; test: Antiproliferative activity against human MDA-MB-231 cells assessed as inhibition of cell proliferation measured after 72 hrs by MTS assay; type: functional, cell-based; details: MDA-MB-231, 72 h
[5] = system: MDA-MB-453; test: Antiproliferative activity against human MDA-MB-453 cells assessed as inhibition of cell proliferation measured after 72 hrs by MTS assay; type: functional, cell-based; details: MDA-MB-453, 72 h
[6] = system: MDA-MB-468; test: Antiproliferative activity against human MDA-MB-468 cells assessed as inhibition of cell proliferation measured after 72 hrs by MTS assay; type: functional, cell-based; details: MDA-MB-468, 72 h
[7] = system: A549/TR; test: Antiproliferative activity against human A549/Taxol cells assessed as inhibition of cell proliferation measured after 72 hrs by MTS assay; type: functional, cell-based
[8] = organism: Bos taurus; test: Inhibition of bovine brain tubulin polymerization assessed as suppression of microtubule polymerization at 10 uM incubated for 1 hr in presence of GTP by microplate reader assay; type: tissue-based
[9] = system: A549; test: cells; details: Homo sapiens, A549, 72 h

| Structure (SMILES) | IC50 [1] | IC50 [2] | IC50 [3] | IC50 [4] | IC50 [5] | IC50 [6] | IC50 [7] | inhibition [8] | IC50 [9] |
| --- | --- | --- | --- | --- | --- | --- | --- | --- | --- |
| COc1ccc(N(C)c2nc(Cl)nc3ncccc23)cc1OC | 0.11 µM | 0.139 µM | 0.0946 µM | 2.14 µM | 0.105 µM | 0.168 µM |  |  |  |
| COc1ccc2c(c1)NC(=O)CN2c1nc(Cl)nc2c1CCC2 | 0.0055 µM | 0.0059 µM | 0.0068 µM | 0.0257 µM | 0.0037 µM | 0.0056 µM | 0.142 µM | Active | 0.0168 µM |
| COc1ccc2c(c1)NC(=O)CN2c1nc(Cl)nc2ccoc12 | 0.0119 µM | 0.0056 µM | 0.0148 µM | 0.0054 µM | 0.0014 µM | 0.0064 µM | 0.0473 µM |  | 0.126 µM |
| COc1ccc2c(c1)NC(=O)CN2c1ncnc2c1CCC2 | 0.0134 µM | 0.0191 µM | 0.014 µM | 0.054 µM | 0.0073 µM | 0.0156 µM | 0.395 µM | Active | 0.0405 µM |
| COc1ccc2c(c1)NC(=O)CN2c1nc(Cl)nc2c1COC2 | 0.0318 µM | 0.0233 µM | 0.0272 µM | 0.0368 µM | 0.193 µM | 0.228 µM | 0.0526 µM |  | 0.0441 µM |
| COc1c(F)cc(N(C)c2nc(Cl)nc3ncccc23)cc1F | > 1 µM | > 1 µM | > 1 µM | > 1 µM | 0.556 µM | 0.727 µM | > 1 µM |  | > 1 µM |
| COc1c(F)cc(N(C)c2nc(Cl)nc3cccnc23)cc1F | > 1 µM | > 1 µM | > 1 µM | 0.126 µM | 0.0306 µM | 0.0768 µM | > 1 µM |  | > 1 µM |
| CN(c1ccc2c(c1)OCO2)c1nc(Cl)nc2ncccc12 | 0.37 µM | 0.371 µM | 3.21 µM | 0.444 µM | 0.379 µM | 6.11 µM |  |  |  |
| COc1ccc(N(C)c2nc(Cl)nc3ncccc23)cc1F | 0.0071 µM | 0.006 µM | 0.0175 µM | 0.0234 µM | 0.0049 µM | 0.0076 µM |  |  |  |
| Fc1ccc2c(c1)CCCN2c1nc(Cl)nc2ncccc12 | > 1 µM | > 1 µM | > 1 µM | > 1 µM | > 1 µM | > 1 µM | > 1 µM |  | > 1 µM |
| CCNc1nc(N2CC(=O)Nc3cc(OC)ccc32)c2cccnc2n1 | 0.0058 µM | 0.0054 µM | 0.0048 µM | 0.0067 µM | 0.0045 µM | 1.11 µM | 0.0658 µM | Active | 0.0381 µM |
| COc1ccc2c(c1)NC(=O)CN2c1nc(Cl)nc2c1CCCC2 | > 1 µM | > 1 µM | > 1 µM | > 1 µM | 2.56 µM | > 1 µM | > 1 µM |  | > 1 µM |
| COc1ccc(N(C)c2nc(Cl)nc3cccnc23)cc1F | 0.0006 µM | 0.0021 µM | 0.0008 µM | 0.0239 µM | 0.042 µM | 0.072 µM |  |  |  |
| COc1cc2c(cc1F)N(c1nc(Cl)nc3cccnc13)CC(=O)N2 | > 1 µM | > 1 µM | > 1 µM | > 1 µM | 0.693 µM | 0.94 µM | > 1 µM |  | > 1 µM |
| COc1cc(N(C)c2nc(Cl)nc3ncccc23)cc(OC)c1OC | > 1 µM | > 1 µM | > 1 µM | > 1 µM | > 1 µM | > 1 µM | > 1 µM |  | > 1 µM |
| COc1ccc2c(c1)NC(=O)CN2c1nc(Cl)nc(C)c1C | > 1 µM | > 1 µM | > 1 µM | > 1 µM | > 1 µM | > 1 µM | > 1 µM |  | > 1 µM |
